# From ChEMBL document CHEMBL4828736, “Discovery of ASTX029, A Clinical Candidate Which Modulates the Phosphorylation and Catalytic Activity of ERK1/2” (J Med Chem, 2021)
# System: not listed separately
# Assay: physchem
# Conditions: buffer, pH 7.4
row,SMILES,chromatographic logD
1,COc1cc(F)cc([C@@H](CO)NC(=O)[C@@H](C)N2Cc3ccc(-c4nc(N[C@@H](C)CO)ncc4Cl)cc3C2=O)c1,3.1
2,O=C(CN1Cc2ccc(-c3nc(NC4CCOCC4)ncc3Cl)cc2C1=O)N1CCc2ccccc2CC1,4.7
3,O=C(CN1Cc2ccc(-c3nc(NC4CCOCC4)ncc3Cl)cc2C1=O)N[C@@]1(CO)CCc2ccccc21,3.6
4,C[C@H](C(=O)N[C@H](CO)c1cccc(N2CCN(C)CC2)n1)N1Cc2ccc(-c3nc(NC4CCOCC4)ncc3Cl)cc2C1=O,3.3

# The remaining lines, values ahead:
row,chromatographic logD,SMILES
1,3,COc1cc([C@@H](CO)NC(=O)[C@@H](C)N2Cc3ccc(-c4nc(NC5CCOCC5)ncc4Cl)cc3C2=O)ccn1
2,3.3,COc1cc(F)cc([C@@H](CO)NC(=O)[C@@H](C)N2Cc3ccc(-c4nc(NC5COC5)ncc4Cl)cc3C2=O)c1

# System: not listed separately
# Assay: in vitro
# Conditions: human, microsomes
row,SMILES,"half-life at 40 min, 1 µM [min]"
1,COc1cc(F)cc([C@@H](CO)NC(=O)[C@@H](C)N2Cc3ccc(-c4nc(N[C@@H](C)CO)ncc4Cl)cc3C2=O)c1,28
2,O=C(CN1Cc2ccc(-c3nc(NC4CCOCC4)ncc3Cl)cc2C1=O)N1CCc2ccccc2CC1,17
3,O=C(CN1Cc2ccc(-c3nc(NC4CCOCC4)ncc3Cl)cc2C1=O)N[C@@]1(CO)CCc2ccccc21,10
4,C[C@H](C(=O)N[C@H](CO)c1cccc(N2CCN(C)CC2)n1)N1Cc2ccc(-c3nc(NC4CCOCC4)ncc3Cl)cc2C1=O,36

# Continued, values first:
row,"half-life at 40 min, 1 µM [min]",SMILES
1,33,COc1cc([C@@H](CO)NC(=O)[C@@H](C)N2Cc3ccc(-c4nc(NC5CCOCC5)ncc4Cl)cc3C2=O)ccn1
2,29,COc1cc(F)cc([C@@H](CO)NC(=O)[C@@H](C)N2Cc3ccc(-c4nc(NC5COC5)ncc4Cl)cc3C2=O)c1

# System: not listed separately
# Assay: in vivo
# Conditions: BALB/c, mouse, po, 5 mg/kg
row,SMILES,bioavailability at 24 h [%]
1,COc1cc(F)cc([C@@H](CO)NC(=O)[C@@H](C)N2Cc3ccc(-c4nc(N[C@@H](C)CO)ncc4Cl)cc3C2=O)c1,9
2,O=C(CN1Cc2ccc(-c3nc(NC4CCOCC4)ncc3Cl)cc2C1=O)N1CCc2ccccc2CC1,10
3,O=C(CN1Cc2ccc(-c3nc(NC4CCOCC4)ncc3Cl)cc2C1=O)N[C@@]1(CO)CCc2ccccc21,40
4,C[C@H](C(=O)N[C@H](CO)c1cccc(N2CCN(C)CC2)n1)N1Cc2ccc(-c3nc(NC4CCOCC4)ncc3Cl)cc2C1=O,15

# The remaining lines, values ahead:
row,bioavailability at 24 h [%],SMILES
1,20,COc1cc([C@@H](CO)NC(=O)[C@@H](C)N2Cc3ccc(-c4nc(NC5CCOCC5)ncc4Cl)cc3C2=O)ccn1
2,30,COc1cc(F)cc([C@@H](CO)NC(=O)[C@@H](C)N2Cc3ccc(-c4nc(NC5COC5)ncc4Cl)cc3C2=O)c1

# Target: CYP3A4 (Homo sapiens, UniProt P08684)
# Assay: in vitro
# Conditions: recombinant enzyme
# CYP3A4, sequence (P08684 whole entry): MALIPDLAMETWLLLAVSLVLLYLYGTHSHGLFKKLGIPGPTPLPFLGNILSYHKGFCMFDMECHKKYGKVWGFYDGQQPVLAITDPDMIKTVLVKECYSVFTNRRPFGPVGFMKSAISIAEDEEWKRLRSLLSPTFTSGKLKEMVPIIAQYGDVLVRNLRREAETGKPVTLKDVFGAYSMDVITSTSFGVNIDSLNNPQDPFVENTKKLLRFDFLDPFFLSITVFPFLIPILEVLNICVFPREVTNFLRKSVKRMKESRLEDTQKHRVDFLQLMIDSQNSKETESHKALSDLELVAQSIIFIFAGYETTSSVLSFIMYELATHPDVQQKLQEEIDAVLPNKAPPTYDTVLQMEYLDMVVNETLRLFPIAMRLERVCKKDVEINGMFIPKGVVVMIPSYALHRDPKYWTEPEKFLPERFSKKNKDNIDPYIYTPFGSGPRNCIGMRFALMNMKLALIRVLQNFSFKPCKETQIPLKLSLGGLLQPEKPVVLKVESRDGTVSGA
row,"half-life at 40 min, 1 µM [min]",SMILES
1,29,COc1cc(F)cc([C@@H](CO)NC(=O)[C@@H](C)N2Cc3ccc(-c4nc(N[C@@H](C)CO)ncc4Cl)cc3C2=O)c1
2,28,O=C(CN1Cc2ccc(-c3nc(NC4CCOCC4)ncc3Cl)cc2C1=O)N1CCc2ccccc2CC1
3,17,C[C@H](C(=O)N[C@H](CO)c1cccc(N2CCN(C)CC2)n1)N1Cc2ccc(-c3nc(NC4CCOCC4)ncc3Cl)cc2C1=O
4,50,COc1cc(F)cc([C@@H](CO)NC(=O)[C@@H](C)N2Cc3ccc(-c4nc(NC5COC5)ncc4Cl)cc3C2=O)c1

# System: not listed separately
# Assay: in vivo
# Conditions: BALB/c, mouse, po, 5 mg/kg
# Remark: another data set of the same source
row,SMILES,half-life at 24 h [min]
1,COc1cc(F)cc([C@@H](CO)NC(=O)[C@@H](C)N2Cc3ccc(-c4nc(N[C@@H](C)CO)ncc4Cl)cc3C2=O)c1,108
2,O=C(CN1Cc2ccc(-c3nc(NC4CCOCC4)ncc3Cl)cc2C1=O)N1CCc2ccccc2CC1,84
3,O=C(CN1Cc2ccc(-c3nc(NC4CCOCC4)ncc3Cl)cc2C1=O)N[C@@]1(CO)CCc2ccccc21,53.4
4,C[C@H](C(=O)N[C@H](CO)c1cccc(N2CCN(C)CC2)n1)N1Cc2ccc(-c3nc(NC4CCOCC4)ncc3Cl)cc2C1=O,60

# Next, values leading:
row,half-life at 24 h [min],SMILES
1,90,COc1cc([C@@H](CO)NC(=O)[C@@H](C)N2Cc3ccc(-c4nc(NC5CCOCC5)ncc4Cl)cc3C2=O)ccn1
2,102,COc1cc(F)cc([C@@H](CO)NC(=O)[C@@H](C)N2Cc3ccc(-c4nc(NC5COC5)ncc4Cl)cc3C2=O)c1

# Target: Mitogen-activated protein kinase 1 (Homo sapiens) (UniProt P28482)
# Assay: not given
# Conditions: dose 1.0 nM, time 30.0 min
# Mitogen-activated protein kinase 1 (Homo sapiens), sequence (P28482 whole entry): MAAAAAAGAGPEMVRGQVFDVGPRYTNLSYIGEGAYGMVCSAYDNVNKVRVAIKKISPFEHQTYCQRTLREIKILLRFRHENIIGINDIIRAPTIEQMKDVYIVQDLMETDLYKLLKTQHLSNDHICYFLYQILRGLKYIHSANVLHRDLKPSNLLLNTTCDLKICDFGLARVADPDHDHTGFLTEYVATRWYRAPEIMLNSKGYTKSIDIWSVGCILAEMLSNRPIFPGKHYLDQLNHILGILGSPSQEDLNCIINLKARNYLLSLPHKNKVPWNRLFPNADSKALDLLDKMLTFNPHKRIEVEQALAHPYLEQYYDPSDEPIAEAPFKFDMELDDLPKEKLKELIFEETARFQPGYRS
row,inhibition [%],SMILES
1,49,COc1cc(F)cc([C@@H](CO)NC(=O)[C@@H](C)N2Cc3ccc(-c4nc(NC5COC5)ncc4Cl)cc3C2=O)c1

# System: not listed separately
# Assay: in vivo
# Conditions: BALB/c, mouse, iv, 0.5 mg/kg
row,SMILES,Vd at 24 h [L/kg]
1,COc1cc(F)cc([C@@H](CO)NC(=O)[C@@H](C)N2Cc3ccc(-c4nc(N[C@@H](C)CO)ncc4Cl)cc3C2=O)c1,1.4
2,O=C(CN1Cc2ccc(-c3nc(NC4CCOCC4)ncc3Cl)cc2C1=O)N1CCc2ccccc2CC1,0.45
3,O=C(CN1Cc2ccc(-c3nc(NC4CCOCC4)ncc3Cl)cc2C1=O)N[C@@]1(CO)CCc2ccccc21,0.91
4,C[C@H](C(=O)N[C@H](CO)c1cccc(N2CCN(C)CC2)n1)N1Cc2ccc(-c3nc(NC4CCOCC4)ncc3Cl)cc2C1=O,0.76

# Results, then the compound that gave them:
row,Vd at 24 h [L/kg],SMILES
1,0.26,COc1cc([C@@H](CO)NC(=O)[C@@H](C)N2Cc3ccc(-c4nc(NC5CCOCC5)ncc4Cl)cc3C2=O)ccn1
2,0.71,COc1cc(F)cc([C@@H](CO)NC(=O)[C@@H](C)N2Cc3ccc(-c4nc(NC5COC5)ncc4Cl)cc3C2=O)c1

# System: not listed separately
# Assay: in vitro
# Conditions: CD1, mouse, microsomes
row,"half-life at 40 min, 1 µM [min]",SMILES
1,28,O=C(CN1Cc2ccc(-c3nc(NC4CCOCC4)ncc3Cl)cc2C1=O)N1CCc2ccccc2CC1
2,20,O=C(CN1Cc2ccc(-c3nc(NC4CCOCC4)ncc3Cl)cc2C1=O)N[C@@]1(CO)CCc2ccccc21
3,120,C[C@H](C(=O)N[C@H](CO)c1cccc(N2CCN(C)CC2)n1)N1Cc2ccc(-c3nc(NC4CCOCC4)ncc3Cl)cc2C1=O
4,120,COc1cc([C@@H](CO)NC(=O)[C@@H](C)N2Cc3ccc(-c4nc(NC5CCOCC5)ncc4Cl)cc3C2=O)ccn1

# System: COLO 205
# Assay: cells
# Format: functional, cell-based
# Conditions: Homo sapiens, COLO 205, 96 h
row,IC50 [µM],SMILES
1,0.012,COc1cc(F)cc([C@@H](CO)NC(=O)[C@@H](C)N2Cc3ccc(-c4nc(NC5COC5)ncc4Cl)cc3C2=O)c1

# System: not listed separately
# Assay: in vivo
# Conditions: BALB/c, mouse, po, 5 mg/kg
# Remark: another data set of the same source
row,SMILES,AUC at 24 h [ng·h/mL]
1,COc1cc(F)cc([C@@H](CO)NC(=O)[C@@H](C)N2Cc3ccc(-c4nc(N[C@@H](C)CO)ncc4Cl)cc3C2=O)c1,310
2,O=C(CN1Cc2ccc(-c3nc(NC4CCOCC4)ncc3Cl)cc2C1=O)N1CCc2ccccc2CC1,440
3,O=C(CN1Cc2ccc(-c3nc(NC4CCOCC4)ncc3Cl)cc2C1=O)N[C@@]1(CO)CCc2ccccc21,960
4,C[C@H](C(=O)N[C@H](CO)c1cccc(N2CCN(C)CC2)n1)N1Cc2ccc(-c3nc(NC4CCOCC4)ncc3Cl)cc2C1=O,1300

# Second part, the compound after the results:
row,AUC at 24 h [ng·h/mL],SMILES
1,2400,COc1cc([C@@H](CO)NC(=O)[C@@H](C)N2Cc3ccc(-c4nc(NC5CCOCC5)ncc4Cl)cc3C2=O)ccn1
2,2650,COc1cc(F)cc([C@@H](CO)NC(=O)[C@@H](C)N2Cc3ccc(-c4nc(NC5COC5)ncc4Cl)cc3C2=O)c1

# System: not listed separately
# Assay: in vivo
# Conditions: BALB/c, mouse, iv, 0.5 mg/kg
# Remark: another data set of the same source
row,SMILES,clearance at 24 h [mL/min/kg]
1,COc1cc(F)cc([C@@H](CO)NC(=O)[C@@H](C)N2Cc3ccc(-c4nc(N[C@@H](C)CO)ncc4Cl)cc3C2=O)c1,23
2,O=C(CN1Cc2ccc(-c3nc(NC4CCOCC4)ncc3Cl)cc2C1=O)N1CCc2ccccc2CC1,19
3,O=C(CN1Cc2ccc(-c3nc(NC4CCOCC4)ncc3Cl)cc2C1=O)N[C@@]1(CO)CCc2ccccc21,35
4,C[C@H](C(=O)N[C@H](CO)c1cccc(N2CCN(C)CC2)n1)N1Cc2ccc(-c3nc(NC4CCOCC4)ncc3Cl)cc2C1=O,8.7

# Now from value to compound:
row,clearance at 24 h [mL/min/kg],SMILES
1,6.8,COc1cc([C@@H](CO)NC(=O)[C@@H](C)N2Cc3ccc(-c4nc(NC5CCOCC5)ncc4Cl)cc3C2=O)ccn1
2,9.4,COc1cc(F)cc([C@@H](CO)NC(=O)[C@@H](C)N2Cc3ccc(-c4nc(NC5COC5)ncc4Cl)cc3C2=O)c1
